{
  "source": "ChEMBL document CHEMBL5120754",
  "about": "“Structural modification aimed for improving solubility of lead compounds in early phase drug discovery” (Bioorg Med Chem, 2022)",
  "key": {"[1]": {"target": "Transient receptor potential cation channel subfamily V member 1 (Homo sapiens, UniProt Q8NER1)", "sequence (Q8NER1 whole entry)": "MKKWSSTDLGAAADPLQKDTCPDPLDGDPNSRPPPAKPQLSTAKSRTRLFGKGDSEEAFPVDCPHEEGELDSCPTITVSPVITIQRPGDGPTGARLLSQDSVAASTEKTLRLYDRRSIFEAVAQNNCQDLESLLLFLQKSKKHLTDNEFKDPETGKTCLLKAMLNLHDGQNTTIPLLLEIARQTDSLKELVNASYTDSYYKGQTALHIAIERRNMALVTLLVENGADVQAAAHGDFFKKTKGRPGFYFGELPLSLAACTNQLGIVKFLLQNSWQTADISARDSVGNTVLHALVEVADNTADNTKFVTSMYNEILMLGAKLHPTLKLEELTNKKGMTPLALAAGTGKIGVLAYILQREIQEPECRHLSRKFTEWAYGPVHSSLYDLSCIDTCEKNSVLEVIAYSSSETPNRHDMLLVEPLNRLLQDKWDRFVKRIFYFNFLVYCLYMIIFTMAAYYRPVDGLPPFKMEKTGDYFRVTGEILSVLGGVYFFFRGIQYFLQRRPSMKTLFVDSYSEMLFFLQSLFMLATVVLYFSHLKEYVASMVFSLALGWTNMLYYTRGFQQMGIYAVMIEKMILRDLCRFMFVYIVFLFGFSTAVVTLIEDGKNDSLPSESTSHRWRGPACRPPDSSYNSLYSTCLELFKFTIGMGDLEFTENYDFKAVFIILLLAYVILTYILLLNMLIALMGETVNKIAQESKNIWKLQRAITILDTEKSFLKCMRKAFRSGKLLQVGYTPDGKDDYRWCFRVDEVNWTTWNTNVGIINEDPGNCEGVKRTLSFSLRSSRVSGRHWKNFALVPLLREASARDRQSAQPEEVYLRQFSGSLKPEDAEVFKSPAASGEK", "experiment": "Antagonist activity at TRPV1 (unknown origin)"}, "[2]": {"experiment": "physchem", "details": "buffer"}, "[3]": {"target": "cGMP-specific 3',5'-cyclic phosphodiesterase (Homo sapiens, UniProt O76074)", "experiment": "Inhibition of PDE5 (unknown origin) using FAM-cGMP or FAM-cAMP as substrate incubated for 60 mins and measured by fluorescence polarization assay"}, "[4]": {"target": "T1, Glucose-dependent insulinotropic receptor (Homo sapiens, UniProt Q8TDV5)", "T1 sequence (Q8TDV5 whole entry)": "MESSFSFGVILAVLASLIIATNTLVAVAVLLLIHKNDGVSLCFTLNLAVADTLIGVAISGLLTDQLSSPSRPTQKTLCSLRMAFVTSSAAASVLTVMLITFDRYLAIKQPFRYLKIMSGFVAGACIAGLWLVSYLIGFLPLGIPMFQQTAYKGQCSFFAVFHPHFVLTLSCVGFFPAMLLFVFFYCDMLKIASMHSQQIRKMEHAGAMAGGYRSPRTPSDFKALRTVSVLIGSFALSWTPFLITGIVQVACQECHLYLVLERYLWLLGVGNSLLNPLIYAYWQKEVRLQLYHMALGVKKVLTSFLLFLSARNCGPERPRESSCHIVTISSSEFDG", "experiment": "Agonist activity at GPR119 (unknown origin)", "assay_type": "functional"}, "[5]": {"experiment": "Lipophilicity, logD of compound", "assay_type": "physicochemical", "details": "octanol/water"}, "[6]": {"target": "P2Y purinoceptor 12 (Homo sapiens, UniProt Q9H244)", "experiment": "Antagonist activity at P2Y12 receptor in human platelet rich plasma", "assay_type": "functional"}, "[7]": {"target": "Cannabinoid receptor 2 (Homo sapiens, UniProt P34972)", "sequence (P34972 whole entry)": "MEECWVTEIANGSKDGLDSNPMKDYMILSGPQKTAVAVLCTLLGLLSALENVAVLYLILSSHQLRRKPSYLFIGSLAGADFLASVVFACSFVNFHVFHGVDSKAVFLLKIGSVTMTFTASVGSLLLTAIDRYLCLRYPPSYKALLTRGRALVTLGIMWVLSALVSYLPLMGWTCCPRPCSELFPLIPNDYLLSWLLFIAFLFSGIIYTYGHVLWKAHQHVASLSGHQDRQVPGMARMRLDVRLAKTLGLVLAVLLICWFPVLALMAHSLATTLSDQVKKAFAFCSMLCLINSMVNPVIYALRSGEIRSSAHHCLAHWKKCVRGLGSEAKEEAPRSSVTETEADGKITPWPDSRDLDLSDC", "experiment": "Binding affinity towards human CB2 receptor"}, "[8]": {"system": "Hepatitis C virus", "experiment": "Antiviral activity against HCV GT1b-genotype", "assay_type": "functional, organism-based, Hepacivirus hominis"}, "[9]": {"details": "buffer"}, "[10]": {"target": "3',5'-cyclic-AMP phosphodiesterase 4D (Homo sapiens, UniProt Q08499)", "experiment": "Inhibition of PDE4D (unknown origin)"}, "[11]": {"target": "Isocitrate dehydrogenase [NADP] cytoplasmic (Homo sapiens, UniProt O75874, R132H)", "sequence (O75874 2-414 R132H limits assumed)": "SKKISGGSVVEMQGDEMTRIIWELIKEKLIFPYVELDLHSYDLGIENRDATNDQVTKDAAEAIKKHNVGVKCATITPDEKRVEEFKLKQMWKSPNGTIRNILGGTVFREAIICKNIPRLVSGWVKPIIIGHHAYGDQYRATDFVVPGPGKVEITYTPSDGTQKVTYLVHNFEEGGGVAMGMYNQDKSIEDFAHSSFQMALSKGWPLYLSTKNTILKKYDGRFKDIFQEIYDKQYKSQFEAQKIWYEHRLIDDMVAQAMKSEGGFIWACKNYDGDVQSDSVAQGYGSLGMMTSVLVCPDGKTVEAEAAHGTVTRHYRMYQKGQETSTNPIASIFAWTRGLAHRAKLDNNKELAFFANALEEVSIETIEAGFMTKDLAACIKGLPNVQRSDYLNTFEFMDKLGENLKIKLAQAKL", "experiment": "Inhibition of IDH1 R132H mutant (unknown origin)"}, "[12]": {"system": "Trypanosoma brucei brucei", "experiment": "Antitrypanosomal activity against Trypanosoma brucei brucei S427 incubated for 48 hrs by PrestoBlue dye based fluorescence assay", "assay_type": "functional, organism-based", "details": "S427, 48 h"}, "[13]": {"target": "Tyrosine-protein kinase SYK (Homo sapiens, UniProt P43405)", "experiment": "Inhibition of SYK (unknown origin)"}, "[14]": {"target": "Metabotropic glutamate receptor 2 (Homo sapiens, UniProt Q14416)", "sequence (Q14416 whole entry)": "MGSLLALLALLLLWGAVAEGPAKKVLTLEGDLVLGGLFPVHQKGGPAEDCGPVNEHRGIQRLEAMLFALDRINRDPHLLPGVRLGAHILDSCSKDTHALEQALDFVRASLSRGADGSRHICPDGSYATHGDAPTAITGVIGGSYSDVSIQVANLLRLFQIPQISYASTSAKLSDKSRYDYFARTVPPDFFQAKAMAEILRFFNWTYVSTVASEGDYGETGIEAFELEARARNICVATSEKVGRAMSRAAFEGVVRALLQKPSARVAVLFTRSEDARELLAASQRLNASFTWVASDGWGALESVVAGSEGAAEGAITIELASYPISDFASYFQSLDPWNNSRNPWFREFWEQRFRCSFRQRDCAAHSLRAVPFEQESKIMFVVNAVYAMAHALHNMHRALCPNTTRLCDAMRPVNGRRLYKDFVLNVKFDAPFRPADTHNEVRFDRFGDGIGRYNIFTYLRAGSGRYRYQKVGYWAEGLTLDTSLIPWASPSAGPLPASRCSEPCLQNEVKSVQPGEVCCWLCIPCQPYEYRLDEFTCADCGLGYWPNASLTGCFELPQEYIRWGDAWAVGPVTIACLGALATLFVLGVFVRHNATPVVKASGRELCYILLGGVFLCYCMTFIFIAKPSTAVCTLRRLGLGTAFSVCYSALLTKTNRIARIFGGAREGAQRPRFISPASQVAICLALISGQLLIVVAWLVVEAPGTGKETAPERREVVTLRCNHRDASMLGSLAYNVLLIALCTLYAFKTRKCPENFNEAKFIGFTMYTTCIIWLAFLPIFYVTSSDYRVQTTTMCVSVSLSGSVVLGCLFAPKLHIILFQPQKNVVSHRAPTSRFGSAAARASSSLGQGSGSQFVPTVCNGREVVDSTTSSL", "experiment": "Positive allosteric modulation of mGlu2 receptor (unknown origin)"}, "[15]": {"experiment": "physchem", "details": "octanol/water"}, "[16]": {"experiment": "Permeability of compound in human Caco-2 cells", "assay_type": "ADME, cell-based", "details": "read-out: permeability"}, "[17]": {"system": "Mycobacterium tuberculosis", "experiment": "microbe, parasite or virus in culture"}, "[18]": {"target": "Bifunctional epoxide hydrolase 2 (Homo sapiens, UniProt P34913)", "experiment": "Inhibition of recombinant human sEH using CMNPC as substrate incubated for 10 mins and measured by fluorescence assay"}, "[19]": {"target": "Epidermal growth factor receptor (Homo sapiens, UniProt P00533, L858R/T790M)", "sequence (P00533 25-1210 T790M/L858R limits assumed)": "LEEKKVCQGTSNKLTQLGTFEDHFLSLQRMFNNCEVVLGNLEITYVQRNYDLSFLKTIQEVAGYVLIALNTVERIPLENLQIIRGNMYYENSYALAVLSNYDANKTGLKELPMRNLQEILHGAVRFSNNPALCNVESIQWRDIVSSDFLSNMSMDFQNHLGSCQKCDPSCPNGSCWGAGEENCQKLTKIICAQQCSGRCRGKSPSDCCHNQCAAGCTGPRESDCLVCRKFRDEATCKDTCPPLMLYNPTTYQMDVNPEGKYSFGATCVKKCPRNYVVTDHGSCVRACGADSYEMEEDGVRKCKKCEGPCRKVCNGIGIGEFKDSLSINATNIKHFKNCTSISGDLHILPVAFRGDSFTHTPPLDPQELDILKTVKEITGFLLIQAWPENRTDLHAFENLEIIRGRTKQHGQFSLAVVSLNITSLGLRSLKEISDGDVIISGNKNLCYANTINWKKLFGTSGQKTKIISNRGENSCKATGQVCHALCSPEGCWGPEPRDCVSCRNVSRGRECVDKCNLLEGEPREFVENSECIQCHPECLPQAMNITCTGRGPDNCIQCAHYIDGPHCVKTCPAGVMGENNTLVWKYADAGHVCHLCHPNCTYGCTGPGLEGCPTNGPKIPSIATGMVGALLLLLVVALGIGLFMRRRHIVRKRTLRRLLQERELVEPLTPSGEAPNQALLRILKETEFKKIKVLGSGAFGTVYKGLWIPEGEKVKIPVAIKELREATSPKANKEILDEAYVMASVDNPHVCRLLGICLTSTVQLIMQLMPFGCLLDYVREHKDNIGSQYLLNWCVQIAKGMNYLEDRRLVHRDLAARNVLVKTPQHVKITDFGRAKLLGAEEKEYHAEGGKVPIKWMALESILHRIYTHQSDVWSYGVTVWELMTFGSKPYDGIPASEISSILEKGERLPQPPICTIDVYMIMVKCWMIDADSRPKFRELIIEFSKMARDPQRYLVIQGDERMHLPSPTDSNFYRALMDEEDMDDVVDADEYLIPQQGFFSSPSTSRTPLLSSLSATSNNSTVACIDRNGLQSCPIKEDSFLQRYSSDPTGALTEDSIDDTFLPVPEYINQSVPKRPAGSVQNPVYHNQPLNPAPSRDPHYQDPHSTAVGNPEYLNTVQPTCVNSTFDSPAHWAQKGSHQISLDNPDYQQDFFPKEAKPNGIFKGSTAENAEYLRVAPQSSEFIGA"}, "[20]": {"system": "A549", "experiment": "Antiproliferative activity against human A549 cells by MTT assay", "assay_type": "functional, cell-based"}, "[21]": {"target": "Peroxisome proliferator-activated receptor gamma (Homo sapiens, UniProt P37231)", "experiment": "Agonist activity at human PPARgamma"}, "[22]": {"target": "Glutamate NMDA receptor", "experiment": "Antagonist activity at NMDA receptor in rat cortical wedges assessed as inhibition of NMDA-induced depolarization"}, "[23]": {"target": "Corticotropin-releasing factor receptor 1 (Homo sapiens, UniProt P34998)", "sequence (P34998 whole entry)": "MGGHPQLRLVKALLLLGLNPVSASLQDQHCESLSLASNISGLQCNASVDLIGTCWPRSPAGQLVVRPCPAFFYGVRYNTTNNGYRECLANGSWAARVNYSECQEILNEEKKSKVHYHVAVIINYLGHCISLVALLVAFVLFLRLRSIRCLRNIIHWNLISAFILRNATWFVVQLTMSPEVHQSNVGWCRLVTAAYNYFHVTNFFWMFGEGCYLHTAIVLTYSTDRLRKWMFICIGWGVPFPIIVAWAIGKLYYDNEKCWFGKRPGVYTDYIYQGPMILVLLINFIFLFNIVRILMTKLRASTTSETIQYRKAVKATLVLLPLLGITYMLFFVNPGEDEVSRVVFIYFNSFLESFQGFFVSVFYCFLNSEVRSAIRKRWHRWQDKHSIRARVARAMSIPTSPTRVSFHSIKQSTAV", "experiment": "Antagonist activity at human CRF1 receptor", "assay_type": "functional"}, "[24]": {"experiment": "Antagonist activity at GlyN receptor (unknown origin)", "parameters": "species or system Homo sapiens"}, "[25]": {"target": "Glutamate receptor ionotropic AMPA (Homo sapiens, UniProt P42261+P42262+P42263+P48058)", "experiment": "Antagonist activity at AMPA receptor (unknown origin)", "assay_type": "protein-complex assay"}, "[26]": {"system": "Staphylococcus aureus", "experiment": "Antibacterial activity against methicillin-resistant Staphylococcus aureus in in-vivo systemic infection model", "assay_type": "functional"}, "[27]": {"target": "Histone-lysine N-methyltransferase EZH2 (Homo sapiens, UniProt Q15910, Y641N)", "sequence (Q15910 whole entry Y641N)": "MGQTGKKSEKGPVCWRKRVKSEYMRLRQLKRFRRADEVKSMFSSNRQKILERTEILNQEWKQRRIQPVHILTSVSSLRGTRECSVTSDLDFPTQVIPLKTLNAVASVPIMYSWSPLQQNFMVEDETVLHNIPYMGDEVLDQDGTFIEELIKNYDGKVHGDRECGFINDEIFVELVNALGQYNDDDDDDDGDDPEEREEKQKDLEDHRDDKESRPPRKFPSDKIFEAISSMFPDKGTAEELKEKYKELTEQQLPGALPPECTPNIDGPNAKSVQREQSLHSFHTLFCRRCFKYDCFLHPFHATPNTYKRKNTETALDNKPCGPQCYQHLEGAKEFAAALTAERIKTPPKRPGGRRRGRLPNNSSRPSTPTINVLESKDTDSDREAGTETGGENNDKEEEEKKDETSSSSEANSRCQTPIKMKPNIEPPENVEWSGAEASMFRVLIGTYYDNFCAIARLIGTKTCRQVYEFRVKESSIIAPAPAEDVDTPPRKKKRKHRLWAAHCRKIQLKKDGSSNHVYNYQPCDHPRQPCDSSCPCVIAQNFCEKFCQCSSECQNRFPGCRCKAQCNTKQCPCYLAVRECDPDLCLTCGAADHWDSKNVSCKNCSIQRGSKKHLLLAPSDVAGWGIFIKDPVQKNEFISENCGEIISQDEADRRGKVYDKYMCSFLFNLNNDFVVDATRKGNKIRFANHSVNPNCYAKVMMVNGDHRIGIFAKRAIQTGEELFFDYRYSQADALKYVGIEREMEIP", "experiment": "Inhibition of EZH2 Y641N mutant (unknown origin)"}},
  "data": [
    {"smiles": "CC(=O)Nc1nc2c(Oc3cc(C4=CCC(C(F)(F)F)CC4)ncn3)cccc2s1", "note": "(stereo not given)", "values": [
      {"measurement": "IC50", "setting": "[1]", "result": 27, "unit": "nM"},
      {"measurement": "solubility thermodynamic", "setting": "[2]", "result": 13, "unit": "µg/mL"}
    ]},
    {"smiles": "COc1ccc(CNc2c(CO)cnc3c(C4CC4)cc(C#N)cc23)cc1Cl", "values": [
      {"measurement": "solubility thermodynamic", "setting": "[2]", "result": 3.9, "unit": "µM"},
      {"measurement": "IC50", "setting": "[3]", "result": 0.37, "unit": "nM"}
    ]},
    {"smiles": "CC(C)c1nc(N2CCN(c3ncc(OCc4ccncc4C#N)cn3)CC2)no1", "values": [
      {"measurement": "solubility thermodynamic", "setting": "[2]", "result": 6, "unit": "µM"},
      {"measurement": "EC50", "setting": "[4]", "result": 6, "unit": "nM"},
      {"measurement": "logD", "setting": "[5]", "result": 3.3}
    ]},
    {"smiles": "CCOC(=O)c1cc(C#N)c(N2CCC(C(=O)NS(=O)(=O)Cc3ccccc3)CC2)nc1C", "values": [
      {"measurement": "solubility thermodynamic", "setting": "[2]", "result": 2.99, "unit": "µM"},
      {"measurement": "IC50", "setting": "[6]", "result": 3600, "unit": "nM"}
    ]},
    {"smiles": "CCCCCn1c(=O)c(C(=O)NC23CC4CC(CC(C4)C2)C3)c(O)c2ccc(F)cc21", "values": [
      {"measurement": "solubility thermodynamic", "setting": "[2]", "result": 1.5, "unit": "µg/mL"},
      {"measurement": "Ki", "setting": "[7]", "result": 0.8, "unit": "nM"}
    ]},
    {"smiles": "COc1c(/C=C/c2ccc(NS(C)(=O)=O)cc2)cc(N2CCC(=O)NC2=O)cc1C(C)(C)C", "values": [
      {"measurement": "EC50", "setting": "[8]", "result": 0.3, "unit": "nM"},
      {"measurement": "Therm_solubility", "setting": "[9]", "result": 20700, "unit": "µg/mL"}
    ]},
    {"smiles": "O=C(O)C1CCC(c2cc3cccnc3c(-c3cccc(F)c3)n2)CC1", "note": "(stereo not given)", "values": [
      {"measurement": "solubility thermodynamic", "setting": "[2]", "result": 920, "unit": "µg/mL"},
      {"measurement": "IC50", "setting": "[10]", "result": 32, "unit": "nM"}
    ]},
    {"smiles": "COc1nc(N[C@@H](C)c2cc3cc(Cl)ccc3[nH]c2=O)ncc1C#N", "values": [
      {"measurement": "IC50", "setting": "[11]", "result": 81.4, "unit": "nM"},
      {"measurement": "solubility thermodynamic", "setting": "[2]", "result": 10.5, "unit": "µM"}
    ]},
    {"smiles": "CN1CCCN(c2ncc(-c3ccc4c(Nc5cnccn5)ccnc4c3)cn2)CC1", "values": [
      {"measurement": "EC50", "setting": "[12]", "result": 13, "unit": "nM"}
    ]},
    {"smiles": "CC(C)N1C[C@H]2C[C@@H]1CN2c1ccc(Nc2nc(-c3ccc4cn[nH]c4c3)cn3ccnc23)cc1", "values": [
      {"measurement": "solubility thermodynamic", "setting": "[2]", "result": 0.216, "unit": "µg/mL"},
      {"measurement": "IC50", "setting": "[13]", "result": 80, "unit": "nM"}
    ]},
    {"smiles": "Fc1ccc(C2CCC(c3ccn4c(CC5CC5)nnc4c3C(F)(F)F)CC2)c(F)c1", "note": "(stereo not given)", "values": [
      {"measurement": "solubility thermodynamic", "setting": "[2]", "result": 50, "unit": "µg/mL"},
      {"measurement": "EC50", "setting": "[14]", "result": 78, "unit": "nM"},
      {"measurement": "logP", "setting": "[15]", "result": 4.2},
      {"measurement": "Papp", "setting": "[16]", "result": 22, "unit": "×10⁻⁶ cm/s"}
    ]},
    {"smiles": "O=C(NC1=CC=CC1)NC12CC3CC(CC(C3)C1)C2", "values": [
      {"measurement": "MIC", "setting": "[17]", "result": 0.01, "unit": "µg/mL"},
      {"measurement": "solubility thermodynamic", "setting": "[2]", "result": 0.1, "unit": "µg/mL"},
      {"measurement": "IC50", "setting": "[18]", "result": 0.4, "unit": "nM"}
    ]},
    {"smiles": "C=CC(=O)N1CCC(N2C(=O)N(c3ccccc3)Cc3cnc(Nc4ccc(N5CCN(C)CC5)c(C)c4)nc32)C1", "note": "(stereo not given)", "values": [
      {"measurement": "IC50", "setting": "[19]", "result": 9.2, "unit": "nM"}
    ]},
    {"smiles": "CC[C@]1(OC(=O)CNC(=O)CCC(=O)O)C(=O)OCc2c1ccn(Cc1cnc3ccc4c(c3c1)C(=O)NC(C(C)C)O4)c2=O", "note": "(stereo not given in full)", "values": [
      {"measurement": "IC50", "setting": "[20]", "result": 6470, "unit": "nM"},
      {"measurement": "solubility thermodynamic", "setting": "[2]", "result": 3400, "unit": "µg/mL"}
    ]},
    {"smiles": "CCCOc1ccc(CC(Cc2ccccc2)C(=O)O)cc1CNC(=O)c1ccc(-c2ncccn2)cc1", "note": "(stereo not given)", "values": [
      {"measurement": "solubility thermodynamic", "setting": "[2]", "result": 301, "unit": "µg/mL"},
      {"measurement": "EC50", "setting": "[21]", "result": 34.6, "unit": "nM"}
    ]},
    {"smiles": "CCC(c1c(Cl)c(Cl)cc2nc(O)c(O)nc12)n1cncn1", "note": "(stereo not given)", "values": [
      {"measurement": "solubility thermodynamic", "setting": "[2]", "result": 10, "unit": "µg/mL"},
      {"measurement": "IC50", "setting": "[22]", "result": 4.4, "unit": "nM"}
    ]},
    {"smiles": "CCCN(CC1CC1)c1cc(C)nc2c(-c3ccc(Cl)cc3Cl)c(C)nn12", "values": [
      {"measurement": "IC50", "setting": "[23]", "result": 76, "unit": "nM"}
    ]},
    {"smiles": "CCOC(=O)CN(C)Cc1c(CC)c([N+](=O)[O-])cc2nc(O)c(O)nc12", "values": [
      {"measurement": "solubility thermodynamic", "setting": "[2]", "result": 150, "unit": "µg/mL"},
      {"measurement": "IC50", "setting": "[24]", "result": 470, "unit": "nM"},
      {"measurement": "IC50", "setting": "[25]", "result": 140, "unit": "nM"}
    ]},
    {"smiles": "CC(=O)NC[C@H]1CN(c2ccc(N3CCOCC3)c(F)c2)C(=O)O1", "note": "[LINEZOLID]", "values": [
      {"measurement": "ED50", "setting": "[26]", "result": 5, "unit": "mg/kg"}
    ]},
    {"smiles": "COc1cc(C)[nH]c(=O)c1CN1CCc2c(Cl)cc([C@H](OC)C3COC3)c(Cl)c2C1=O", "note": "[MEVROMETOSTAT]", "values": [
      {"measurement": "Ki", "setting": "[27]", "result": "< 0.1", "unit": "nM"}
    ]}
  ]
}
